The results in this text go back to patent publication US10144742B2 (Millennium Pharmaceuticals, Inc., priority 2014, dated 2018).

Molecules are shown by their SMILES.

The target of one test is hNAMPT protein (Homo sapiens (Human), UniProt P43490). As to the kind of experiment: NAMPT enzyme assay (TR-FRET/HTRF, BodiPY ligand, anti 6His-Tb). It is filed as binding. The conditions noted are these: for IC50: NAMPT IC50 range class, read-out: IC50; for inhibition at 1 µM: compound concentration 1 μM, read-out: Percent Inhibition. In a few lines: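 Compound or DMSO was incubated for 1 h at room temperature, protected from light, with BodiPY ligand and hNAMPT labelled by terbium anti-6His antibody. The 520 nm to 486 nm emission ratio after 320 nm excitation gave inhibition versus vehicle, from which concentration-response curves yielded IC50.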

For a further test, the system named is PC3 cells. As to the kind of experiment: PC3 growth inhibition (Cell-titer glo, 72 hours). The test is classed as cell-based. The conditions noted are these: Homo sapiens, PC-3, PC3 cells, 72 hours, Cell-titer glo, read-out: Percent Inhibition (PC3 growth inhibition); for inhibition at 1.667 µM: compound concentration 1.667 μM; for inhibition at 1 µM: compound concentration 1 μM. Summed up:
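Compounds in AIM serum-free medium were applied for 72 h at 37 °C, 5% CO2 to PC3 cells plated overnight from RPMI1640 culture. Luminescence after 10 min CellTiter-Glo, normalised to DMSO, gave % viability at 1 μM or 1.667 μM, or GI50/LD50.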

Chain of hNAMPT protein (P43490 whole entry): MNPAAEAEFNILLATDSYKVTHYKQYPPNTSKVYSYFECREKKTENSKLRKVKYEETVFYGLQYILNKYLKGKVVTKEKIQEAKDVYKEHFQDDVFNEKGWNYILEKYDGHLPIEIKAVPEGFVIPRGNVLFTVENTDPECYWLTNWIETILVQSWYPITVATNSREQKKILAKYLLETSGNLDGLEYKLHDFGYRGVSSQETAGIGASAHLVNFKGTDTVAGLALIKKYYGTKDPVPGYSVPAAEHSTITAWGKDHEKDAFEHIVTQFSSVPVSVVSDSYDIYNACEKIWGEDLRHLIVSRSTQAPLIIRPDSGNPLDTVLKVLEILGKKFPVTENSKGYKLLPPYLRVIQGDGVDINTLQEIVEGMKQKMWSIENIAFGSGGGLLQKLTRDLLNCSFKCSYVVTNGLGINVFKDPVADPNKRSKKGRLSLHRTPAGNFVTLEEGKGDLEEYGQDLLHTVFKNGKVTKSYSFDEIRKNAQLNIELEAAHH

A word on the IC50: it is the midpoint of a concentration-inhibition curve. What is called inhibition is the drop in the measured response relative to a control, in per cent. In the case of `O=C(NCCOc1cccnc1)c1ccc2nc(Cl)c(-c3ccc(F)cc3)nc2c1` [Compound I-86, 2-chloro-3-(4-fluorophenyl)-N-[2-(pyridin-3-yloxy)ethyl]quinoxaline-6-carboxamide], on hNAMPT protein, the IC50 was less than 100 nM and the inhibition at 1 µM came out at 62%. In addition, the inhibition at 1.667 µM in the test on PC3 cells was 3%.

With `O=C(NCCCn1ccnc1)c1ccc2nc(-c3ccccc3)c(N3CCCC(O)C3)nc2c1` (stereo not drawn) [Compound I-87, 3-(3-hydroxypiperidin-1-yl)-N-[3-(1H-imidazol-1-yl)propyl]-2-phenylquinoxaline-6-carboxamide], the IC50 on hNAMPT protein lay in the range of 1000 to 2000 nM. For the same molecule, the inhibition at 1 µM on hNAMPT protein was 39%; with PC3 cells it was -7%.

For `O=C(NCCCn1ccnc1)c1ccc2nc(CN3CCOCC3)c(-c3ccccc3)nc2c1` [Compound I-88, N-[3-(1H-imidazol-1-yl)propyl]-2-(morpholin-4-ylmethyl)-3-phenylquinoxaline-6-carboxamide], at hNAMPT protein, the IC50 fell in the range of 1000 to 2000 nM and the inhibition at 1 µM amounted to 41%. In addition, the inhibition at 1 µM in the test on PC3 cells was -7%.

As for `NS(=O)(=O)c1cccc(-c2nc3ccc(C(=O)NCCCn4ccnc4)cc3nc2-c2ccccc2)c1` [Compound I-89, N-[3-(1H-imidazol-1-yl)propyl]-3-phenyl-2-(3-sulfamoylphenyl)quinoxaline-6-carboxamide], on hNAMPT protein, the IC50 lay in the range of 100 to 500 nM. For the same molecule, the inhibition at 1 µM was 68% at hNAMPT protein and -7% with PC3 cells.

In the case of `O=C(NCCCn1ccnc1)c1ccc2nc(N3CCC(O)C3)c(-c3ccccc3)nc2c1` (stereo not drawn) [Compound I-90, 2-(3-hydroxypyrrolidin-1-yl)-N-[3-(1H-imidazol-1-yl)propyl]-3-phenylquinoxaline-6-carboxamide], at hNAMPT protein, the IC50 was 500 to 1000 nM and the inhibition at 1 µM worked out at 54%. Moreover, the inhibition at 1 µM in the test with PC3 cells was -7%.

For the molecule `COc1cccc(-c2nc3cc(C(=O)NCCCc4ncc[nH]4)ccc3nc2N2CCC(N3CCOCC3)CC2)c1` [Compound I-91, N-[3-(1H-imidazol-2-yl)propyl]-3-(3-methoxyphenyl)-2-[4-(morpholin-4-yl)piperidin-1-yl]quinoxaline-6-carboxamide], at hNAMPT protein, the half-inhibitory concentration (IC50) is less than 100 nM and the inhibition at 1 µM was 99%. Further, in the test on PC3 cells, the inhibition at 1.667 µM came to 2%.

Consider `O=C(NCCCn1ccnc1)c1ccc2nc(-c3ccccn3)c(-c3ccccc3)nc2c1` [Compound I-92, N-[3-(1H-imidazol-1-yl)propyl]-3-phenyl-2-(pyridin-2-yl)quinoxaline-6-carboxamide], for which, on hNAMPT protein, the IC50 was 1000 to 2000 nM and the inhibition at 1 µM amounted to 48%. For the same molecule, the inhibition at 1 µM with PC3 cells is -7%.

For the molecule `O=C(NCCc1cccnc1)c1ccc2nc(-c3ccccc3)c(-c3ccccc3)nc2c1` [Compound I-93, 2,3-diphenyl-N-[2-(pyridin-3-yl)ethyl]quinoxaline-6-carboxamide], at hNAMPT protein, the 50% inhibitory concentration (IC50) was in the range of 500 to 1000 nM and the inhibition at 1 µM stood at 52%. Besides, in the test on PC3 cells, the inhibition at 1 µM is 15%.

As for `O=C(NCCCc1cn[nH]c1)c1ccc2nc(N3CCCCC3)c(-c3ccc(F)cc3)nc2c1` [Compound I-94, 3-(4-fluorophenyl)-2-(piperidin-1-yl)-N-[3-(1H-pyrazol-4-yl)propyl]quinoxaline-6-carboxamide], on hNAMPT protein, the IC50 was less than 100 nM and the inhibition at 1 µM stood at 92%. Further, in the test on PC3 cells, the inhibition at 1.667 µM amounted to 34%.

On to `O=C(NCCCn1ccnc1)c1ccc2nc(-c3ccccc3)c(-c3cccc(OC(F)(F)F)c3)nc2c1` [Compound I-95, N-[3-(1H-imidazol-1-yl)propyl]-2-phenyl-3-[3-(trifluoromethoxy)phenyl]quinoxaline-6-carboxamide], for which the IC50 on hNAMPT protein lay in the range of 500 to 1000 nM. Moreover, the values for the inhibition at 1 µM at hNAMPT protein and with PC3 cells were 61% and 1%, respectively.

Regarding `O=C(NCCCn1ccnc1)c1ccc2nc(N3CCOCC3)c(-c3ccccc3)nc2c1` [Compound I-96, N-[3-(1H-imidazol-1-yl)propyl]-2-(morpholin-4-yl)-3-phenylquinoxaline-6-carboxamide], at hNAMPT protein, the IC50 lay within 100 to 500 nM and the inhibition at 1 µM was 82%. In addition, the inhibition at 1 µM in the test on PC3 cells was 0%.

Turning to `O=C(NCCCn1ccnc1)c1ccc2nc(-c3ccccc3)c(-c3ccc4[nH]ccc4c3)nc2c1` [Compound I-97, N-[3-(1H-imidazol-1-yl)propyl]-3-(1H-indol-5-yl)-2-phenylquinoxaline-6-carboxamide], the IC50 on hNAMPT protein fell in the range of 500 to 1000 nM. The inhibition at 1 µM on hNAMPT protein is 58%; with PC3 cells it was 1%.

As to `COc1ccc(-c2nc3ccc(C(=O)NCCCn4ccnc4)cc3nc2-c2ccccc2)cc1` [Compound I-99, N-[3-(1H-imidazol-1-yl)propyl]-2-(4-methoxyphenyl)-3-phenylquinoxaline-6-carboxamide], on hNAMPT protein, the half-inhibitory concentration (IC50) lay in the range of 100 to 500 nM and the inhibition at 1 µM came to 75%. In addition, the inhibition at 1 µM in the test with PC3 cells was -8%.

As for `O=C(NCCCn1ccnc1)c1ccc2nc(N3CCCC(O)C3)c(-c3ccccc3)nc2c1` (stereo not drawn) [Compound I-100, 2-(3-hydroxypiperidin-1-yl)-N-[3-(1H-imidazol-1-yl)propyl]-3-phenylquinoxaline-6-carboxamide], at hNAMPT protein, the IC50 was 100 to 500 nM and the inhibition at 1 µM is 85%. Also, the inhibition at 1 µM in the test on PC3 cells was -7%.

`CS(=O)(=O)C1CCN(c2nc3cc(C(=O)NCCCn4ccnc4)ccc3nc2-c2ccccc2)C1` (stereo not drawn) [Compound I-101, N-[3-(1H-imidazol-1-yl)propyl]-3-[3-(methylsulfonyl)pyrrolidin-1-yl]-2-phenylquinoxaline-6-carboxamide]: at hNAMPT protein, the IC50 fell in the range of 2000 to 10000 nM and the inhibition at 1 µM was determined as 16%. Moreover, in the test with PC3 cells, the inhibition at 1 µM was 7%.

`O=C(NCCc1ncc[nH]1)c1ccc2nc(Cl)c(-c3ccc(F)cc3)nc2c1` [Compound I-102, 2-chloro-3-(4-fluorophenyl)-N-[2-(1H-imidazol-2-yl)ethyl]quinoxaline-6-carboxamide]: on hNAMPT protein, the IC50 is 500 to 1000 nM and the inhibition at 1 µM turned out to be 38%. Besides, the inhibition at 1.667 µM in the test on PC3 cells is greater than 99%.

`O=C(NCCCc1ccnnc1)c1ccc2nc(N3CCCCC3)c(-c3ccc(F)cc3)nc2c1` [Compound I-103, 3-(4-fluorophenyl)-2-(piperidin-1-yl)-N-[3-(pyridazin-4-yl)propyl]quinoxaline-6-carboxamide]: at hNAMPT protein, the IC50 is less than 100 nM and the inhibition at 1 µM was 96%. The inhibition at 1.667 µM with PC3 cells was 58%.

Turning to `O=C(NCCCc1ncc[nH]1)c1ccc2nc(N3CCOCC3)c(-c3ccc(Cl)cc3)nc2c1` [Compound I-104, 3-(4-chlorophenyl)-N-[3-(1H-imidazol-2-yl)propyl]-2-(morpholin-4-yl)quinoxaline-6-carboxamide], on hNAMPT protein, the IC50 is less than 100 nM and the inhibition at 1 µM is 100%. Also, in the test with PC3 cells, the inhibition at 1.667 µM worked out at 2%.

On to `O=C(NCCCn1ccnc1)c1ccc2nc(N3CCC(O)CC3)c(-c3ccccc3)nc2c1` [Compound I-105, 2-(4-hydroxypiperidin-1-yl)-N-[3-(1H-imidazol-1-yl)propyl]-3-phenylquinoxaline-6-carboxamide], for which, at hNAMPT protein, the IC50 is less than 100 nM and the inhibition at 1 µM came out at 92%. In the test with PC3 cells, the inhibition at 1 µM was -7%.

As for `N#CC1CCN(c2nc3ccc(C(=O)NCCCn4ccnc4)cc3nc2-c2ccccc2)C1` (stereo not drawn) [Compound I-106, 2-(3-cyanopyrrolidin-1-yl)-N-[3-(1H-imidazol-1-yl)propyl]-3-phenylquinoxaline-6-carboxamide], on hNAMPT protein, the IC50 fell in the range of 500 to 1000 nM and the inhibition at 1 µM is 60%. For the same molecule, the inhibition at 1 µM in the test with PC3 cells is -5%.
